Measurements from US4910195A, “Dihydropyridine derivatives” (Green Cross Corporation, priority 1986, dated 1990).

Test: Hypotensive effect, systolic pressure by indirect tail-cuff method without anesthesia, oral administration
Type: in vivo, male rats, 10- to 11-week-old
Conditions: rats, 10 mg/kg, suspended in 10% HCO-60
Experimental: An experiment was conducted to investigate the hypotensive effects of the dihydropyridine derivatives (I) and acid addition salts thereof on 10- to 11-week-old male rats (3 to 5 animals per group).
For blood pressure determination, systolic pressure was measured without anesthesia by an indirect tail-cuff method using a sphygmomanometer (PE-300, Narco Bio-System).
Each of the test compounds was suspended in 10% HCO-60 (polyoxyethylated castor oil produced by Nikko Chemicals K.K.) and administered orally to the animals in a dose of 10 mg/kg. Blood pressure measurements were conducted at predetermined time intervals.

In the case of COC(=O)C1=C(C)NC(C)=C(C(=O)OCCN(C)Cc2ccccc2)C1c1cccc([N+](=O)[O-])c1 (centres unmarked) [nicardipine], the “50% recovery time (time required for the reduced blood pressure to return to half the maximal reduction)” value is reported as 3.1 h and the “maximum blood pressure fall” value is reported as 20%.
